# Source: patent publication US20250297134A1, “HIGH RATE BULK OXIDE CMP COMPOSITION” (ENTEGRIS, INC., priority 2024, published 2025)
# Assay: Aqueous solubility of hydroxamic acid compounds
# Assay type: physicochemical
# Details: deionized water, pH 5.5, stirred overnight, filtered, 1H NMR quantification
# Method: The aqueous solubility was measured and the partition coefficient was computed for nineteen hydroxamic acid compounds. To measure the aqueous solubility, a supersaturated solution of each hydroxamic acid compound was prepared in deionized water. The pH was adjusted to 5.5 using nitric acid and the supersaturated solution was stirred overnight. Excess solids were removed via filtration and the hydroxamic acid compound in solution was quantified using 1H NMR with a t-BuOH standard. […] It was not possible to achieve super saturation for the 2-furohydroxamic acid compound. […] The partition coefficients were computed using the procedure described in Wildman, Scott A. and Crippen, Gordon M., Prediction of Physicochemical Parameters by Atomic Contributions, J. Chem. Inf. Comput. Sci. 1999, 39, 5, 868-873. Briefly, an atom type classification system was used for an atom-based calculation of the partition coefficient (log P) and the molar refractivity (MR).
row,Compound,Aqueous Solubility [%]
1,O=C(C=Cc1ccccc1)NO [Cinnamohydroxamic acid],0.6
2,Cc1ccccc1C(=O)NO [2-Methylbenzohydroxamic acid],3.3
3,N#Cc1ccc(C(=O)NO)cc1 [4-Cyano-N-hydroxybenzamide],0.5
4,Cc1ccc(C(=O)NO)cc1 [4-Methylbenzohydroxamic acid],0.5
5,O=C(CCCc1ccccc1)NO [4-Phenylbutyrl hydroxamic acid],1.6
6,4-Fluoro hydroxamic acid,1.0
7,COc1ccc(C(=O)NO)cc1 [4-Methoxybenzohydroxamic acid],0.4
8,O=C(NO)c1ccccc1 [Benzohydroxamic acid],3.6
9,COc1ccccc1C(=O)NO [2-Methoxybenzohydroxamic acid],1.1
10,Cc1ccc(CCCC(=O)NO)cc1 [4-(p-tolyl)butyrohydroxamic acid],0.2
11,O=C(NO)c1ccco1 [2-furohydroxamic acid],>17.8
12,CCCCCCCC(=O)NO [Octanohydroxamic acid],0.2

# Now from value to compound:
row,Aqueous Solubility [%],Compound
1,1.0,2-Fluoro hydroxamic acid
2,4.8,CCCCCC(=O)NO [Hexanohydroxamic acid]
3,1.8,O=C(COCc1ccccc1)NO [Benzyloxyacetohydroxamic acid]
4,1.5,O=C(Cc1ccccc1)NO [N-hydroxy-2-phenyl-acetamide]
5,1.3,3-Fluoro hydroxamic acid
6,3.0,O=C(NO)c1ccccn1 [Picolinichydroxamic acid]
